ChEMBL document CHEMBL1201862, “PubChem BioAssay data set” (2004)
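In this assay, cells in 96-well plates receive the compound at five concentrations for 48 hours. Endpoints are linearly interpolated between the surrounding concentrations. GI50 = concentration required for 50% inhibition of growth.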 Activity calls are given as the source filed them. Rule as the data show it: active = GI50 up to about 1.1 µM and inactive = higher.

Tests used:
Assay in all cases: NCI tumour cell line growth inhibition, 48 h
[1] = test system: A549
[2] = test system: ACHN
[3] = test system: EKVX
[4] = test system: HCT-116
[5] = test system: HL-60
[6] = test system: K562
[7] = test system: KM12
[8] = test system: LOX IMVI
[9] = test system: M14
[10] = test system: MCF7
[11] = test system: MDA-MB-231
[12] = test system: MOLT-4
[13] = test system: NCI-H226
[14] = test system: NCI/ADR-RES
[15] = test system: SN12C
[16] = test system: SR
[17] = test system: T47D
[18] = test system: UACC-257
[19] = test system: UACC-62
[20] = test system: UO-31

| SMILES | GI50 [1] | GI50 [2] | GI50 [3] | GI50 [4] | GI50 [5] | GI50 [6] | GI50 [7] | GI50 [8] | GI50 [9] | GI50 [10] | GI50 [11] | GI50 [12] | GI50 [13] | GI50 [14] | GI50 [15] | GI50 [16] | GI50 [17] | GI50 [18] | GI50 [19] | GI50 [20] |
| --- | --- | --- | --- | --- | --- | --- | --- | --- | --- | --- | --- | --- | --- | --- | --- | --- | --- | --- | --- | --- |
| CC(Br)C(=O)NC(CO)C(=O)O (stereo not given) | > 100 µM (inactive) | > 100 µM (inactive) | > 100 µM (inactive) | > 100 µM (inactive) | > 100 µM (inactive) | > 100 µM (inactive) | > 100 µM (inactive) | > 100 µM (inactive) | > 100 µM (inactive) | > 100 µM (inactive) | > 100 µM (inactive) | > 100 µM (inactive) | > 100 µM (inactive) | > 100 µM (inactive) | > 100 µM (inactive) | > 100 µM (inactive) | > 100 µM (inactive) | > 100 µM (inactive) | > 100 µM (inactive) | > 100 µM (inactive) |
| O=C(NO)c1cccc(OCc2ccc(Br)cc2)c1 | 5.28 µM (inactive) | 3.03 µM (inactive) | 5.9 µM (inactive) | 4.35 µM (inactive) | 3.01 µM (inactive) | 3.6 µM (inactive) | 5.4 µM (inactive) | 2.11 µM (inactive) | 2.79 µM (inactive) | 2.45 µM (inactive) | 12.3 µM (inactive) | 2.03 µM (inactive) | 3.78 µM (inactive) | 2.93 µM (inactive) | 2.79 µM (inactive) | 2.29 µM (inactive) | 3.06 µM (inactive) | 10.5 µM (inactive) | 4.15 µM (inactive) | 2.77 µM (inactive) |
| Cc1n[nH]c(C(F)(F)F)c1/N=N/N(C)C | 18.4 µM (inactive) | 4.72 µM (inactive) | 2.25 µM (inactive) | 1.93 µM (inactive) | 12.6 µM (inactive) | 2.93 µM (inactive) | 7.57 µM (inactive) | 1.47 µM (inactive) | 14.7 µM (inactive) | 3.5 µM (inactive) | 11.8 µM (inactive) | 2.48 µM (inactive) | 1.95 µM (inactive) | 7.13 µM (inactive) | 12.5 µM (inactive) | 4.47 µM (inactive) | 2.23 µM (inactive) | 14.7 µM (inactive) | 6.81 µM (inactive) | 1.61 µM (inactive) |
| CC1=C(O)C(=O)C=C2C1=CC=C1[C@@]2(C)CC[C@@]2(C)C3C[C@@H](C)C(=O)[C@@H](O)[C@]3(C)CC[C@]12C (stereo not given in full) | 13.9 µM (inactive) | 1.7 µM (inactive) | 2.08 µM (inactive) | 1.72 µM (inactive) | 0.641 µM (active) | 0.891 µM (active) | 5.86 µM (inactive) | 1.5 µM (inactive) | 1.64 µM (inactive) | 2.77 µM (inactive) | 2 µM (inactive) | 0.745 µM (active) | 4.44 µM (inactive) | 2.97 µM (inactive) | 2.08 µM (inactive) | 0.3 µM (active) | 1.64 µM (inactive) | 2.83 µM (inactive) | 1.79 µM (inactive) | 1.92 µM (inactive) |
| CNn1c(C)n[nH]c1=O | > 100 µM (inactive) | > 100 µM (inactive) | > 100 µM (inactive) | > 100 µM (inactive) | > 100 µM (inactive) | > 100 µM (inactive) | > 100 µM (inactive) | > 100 µM (inactive) | > 100 µM (inactive) | > 100 µM (inactive) | > 100 µM (inactive) | > 100 µM (inactive) | > 100 µM (inactive) | > 100 µM (inactive) | > 100 µM (inactive) | > 100 µM (inactive) | > 100 µM (inactive) | > 100 µM (inactive) | > 100 µM (inactive) | > 100 µM (inactive) |
| COc1ccc(/C=C(\C#N)c2nc(-c3cc4ccccc4oc3=O)cs2)cc1 | 32.3 µM (inactive) | 19 µM (inactive) | 35 µM (inactive) | 32.3 µM (inactive) | > 100 µM (inactive) | 58.5 µM (inactive) | 24.3 µM (inactive) | 30.5 µM (inactive) | 24.8 µM (inactive) | 55.7 µM (inactive) | 14.8 µM (inactive) | > 100 µM (inactive) | 31.6 µM (inactive) | 27.2 µM (inactive) | 23.8 µM (inactive) | > 100 µM (inactive) | 52.5 µM (inactive) | 31.8 µM (inactive) | 22.7 µM (inactive) | 23.2 µM (inactive) |
| CNC(=S)N/N=C1\C(=O)N(CN2CCOCC2)c2ccc([N+](=O)[O-])cc21 | 31.9 µM (inactive) | 17.5 µM (inactive) | 15.6 µM (inactive) | 15.4 µM (inactive) | 23.6 µM (inactive) | > 100 µM (inactive) | 22.8 µM (inactive) | 17.4 µM (inactive) | 31.6 µM (inactive) | 20.4 µM (inactive) | 11.9 µM (inactive) | 43.6 µM (inactive) | 15.8 µM (inactive) | 16.3 µM (inactive) | 16.4 µM (inactive) | 53.3 µM (inactive) | 18.9 µM (inactive) | 25.4 µM (inactive) | 15.3 µM (inactive) | 3.05 µM (inactive) |
